Test results published in patent US20250171437A1 (Agios Pharmaceuticals,Inc., priority 2022, published 2025).

Target: T1, human PAH with the R408W mutation (A375 R408W cells) (Homo sapiens, UniProt P00439, R408W)
T1 construct: expressed in transfected cells
T1 sequence (P00439 1-452 R408W): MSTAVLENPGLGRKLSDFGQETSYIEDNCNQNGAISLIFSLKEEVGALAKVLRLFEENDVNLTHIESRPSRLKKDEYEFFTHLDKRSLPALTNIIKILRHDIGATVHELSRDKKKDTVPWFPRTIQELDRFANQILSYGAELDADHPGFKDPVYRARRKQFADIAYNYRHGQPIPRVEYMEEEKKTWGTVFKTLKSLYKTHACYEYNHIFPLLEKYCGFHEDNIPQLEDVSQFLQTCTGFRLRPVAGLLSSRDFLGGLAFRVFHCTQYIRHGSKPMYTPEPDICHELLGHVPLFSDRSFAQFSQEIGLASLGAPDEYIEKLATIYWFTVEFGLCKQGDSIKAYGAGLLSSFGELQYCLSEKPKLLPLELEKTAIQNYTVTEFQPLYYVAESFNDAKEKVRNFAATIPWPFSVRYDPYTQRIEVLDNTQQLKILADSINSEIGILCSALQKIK
Experiment: Cell Based Phenylalanine Flux Assay
Conditions: A375 R408W cells; 24 hrs with compound, then 20 μM sepiapterin and 800 μM 13C9,15N-Phenylalanine for 4 hours; 13C-Tyrosine by LC-MS; average where tested multiple times
In short: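 A375 cells stably expressing lentiviral human PAH R408W were treated with compounds (10-point 2-fold dilutions, 0.5% DMSO, duplicate) for 24 h at 37 °C. Then 20 μM sepiapterin and 800 μM 13C9,15N-Phe were added for 4 h; media 13C-Tyr was measured by LC-MS to give AC50.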

AC50 [nM]	Structure (SMILES)
500 to 1000	Cn1cc(-c2nnc(C(=O)N3CCc4[nH]cnc4[C@H]3c3nc4c(F)cccc4o3)o2)cn1 [Example 197, (S)-(4-(4-fluorobenzo[d]oxazol-2-yl)-6,7-dihydro-1H-imidazo[4,5-c]pyridin-5(4H)-yl)(5-(1-methyl-1H-pyrazol-4-yl)-1,3,4-oxadiazol-2-yl)methanone]
1000 to 5000	Cn1cc(-c2nnc(C(=O)N3CCc4[nH]cnc4[C@@H]3c3nc4c(F)cccc4o3)o2)cn1 [Example 198, (R)-(4-(4-fluorobenzo[d]oxazol-2-yl)-6,7-dihydro-1H-imidazo[4,5-c]pyridin-5(4H)-yl)(5-(1-methyl-1H-pyrazol-4-yl)-1,3,4-oxadiazol-2-yl)methanone]
≤ 500	CC(C)(O)c1nc(C(F)F)c(C(=O)N2CCc3[nH]cnc3[C@H]2c2nc3c(F)cccc3o2)o1 [Example 199, (S)-(4-(difluoromethyl)-2-(2-hydroxypropan-2-yl)oxazol-5-yl)(4-(4-fluorobenzo[d]oxazol-2-yl)-6,7-dihydro-1H-imidazo[4,5-c]pyridin-5(4H)-yl)methanone]
1000 to 5000	CC(C)(O)c1nc(C(F)F)c(C(=O)N2CCc3[nH]cnc3[C@@H]2c2nc3c(F)cccc3o2)o1 [Example 200, (R)-(4-(difluoromethyl)-2-(2-hydroxypropan-2-yl)oxazol-5-yl)(4-(4-fluorobenzo[d]oxazol-2-yl)-6,7-dihydro-1H-imidazo[4,5-c]pyridin-5(4H)-yl)methanone]
500 to 1000	O=C(c1ccnn1C(F)F)N1CCc2[nH]cnc2[C@H]1c1nc2c(F)cccc2o1 [Example 201, (S)-(1-(difluoromethyl)-1H-pyrazol-5-yl)(4-(4-fluorobenzo[d]oxazol-2-yl)-6,7-dihydro-1H-imidazo[4,5-c]pyridin-5(4H)-yl)methanone]
1000 to 5000	O=C(c1ccnn1C(F)F)N1CCc2[nH]cnc2[C@@H]1c1nc2c(F)cccc2o1 [Example 202, (R)-(1-(difluoromethyl)-1H-pyrazol-5-yl)(4-(4-fluorobenzo[d]oxazol-2-yl)-6,7-dihydro-1H-imidazo[4,5-c]pyridin-5(4H)-yl)methanone]
500 to 1000	CN(C)Cc1cn2ncc(C(=O)N3CCc4[nH]cnc4[C@H]3c3nc4cc(F)ccc4o3)c2cc1Cl [Example 203, (S)-(5-chloro-6-((dimethylamino)methyl)pyrazolo[1,5-a]pyridin-3-yl)(4-(5-fluorobenzo[d]oxazol-2-yl)-6,7-dihydro-1H-imidazo[4,5-c]pyridin-5(4H)-yl)methanonee]
1000 to 5000	CN(C)Cc1cn2ncc(C(=O)N3CCc4[nH]cnc4[C@@H]3c3nc4cc(F)ccc4o3)c2cc1Cl [Example 204, (R)-(5-chloro-6-((dimethylamino)methyl)pyrazolo[1,5-a]pyridin-3-yl)(4-(5-fluorobenzo[d]oxazol-2-yl)-6,7-dihydro-1H-imidazo[4,5-c]pyridin-5(4H)-yl)methanonee]
≤ 500	CN(C)c1cn2ncc(C(=O)N3CCc4[nH]cnc4[C@H]3c3nc4cc(F)ccc4o3)c2cc1Cl [Example 207, (S)-(5-chloro-6-(dimethylamino)pyrazolo[1,5-a]pyridin-3-yl)(4-(5-fluorobenzo[d]oxazol-2-yl)-6,7-dihydro-1H-imidazo[4,5-c]pyridin-5(4H)-yl)methanone]
1000 to 5000	CN(C)c1cn2ncc(C(=O)N3CCc4[nH]cnc4[C@@H]3c3nc4cc(F)ccc4o3)c2cc1Cl [Example 208, (R)-(5-chloro-6-(dimethylamino)pyrazolo[1,5-a]pyridin-3-yl)(4-(5-fluorobenzo[d]oxazol-2-yl)-6,7-dihydro-1H-imidazo[4,5-c]pyridin-5(4H)-yl)methanone]
≥ 5000	Cc1nc([C@@H](C)O)oc1C(=O)N1CCc2[nH]cnc2[C@@H]1c1nc2c(F)cccc2o1 [Example 209, ((R)-4-(4-fluorobenzo[d]oxazol-2-yl)-6,7-dihydro-1H-imidazo[4,5-c]pyridin-5(4H)-yl)(2-((R)-1-hydroxyethyl)-4-methyloxazol-5-yl)methanone]
500 to 1000	Cc1nc([C@@H](C)O)oc1C(=O)N1CCc2[nH]cnc2[C@H]1c1nc2c(F)cccc2o1 [Example 210, ((S)-4-(4-fluorobenzo[d]oxazol-2-yl)-6,7-dihydro-1H-imidazo[4,5-c]pyridin-5(4H)-yl)(2-((R)-1-hydroxyethyl)-4-methyloxazol-5-yl)methanone]
500 to 1000	CC(C)(O)c1nc(CF)c(C(=O)N2CCc3[nH]cnc3[C@H]2c2nc3cc(F)ccc3o2)o1 [Example 211, (S)-(4-(5-fluorobenzo[d]oxazol-2-yl)-6,7-dihydro-1H-imidazo[4,5-c]pyridin-5(4H)-yl)(4-(fluoromethyl)-2-(2-hydroxypropan-2-yl)oxazol-5-yl)methanone]
1000 to 5000	CC(C)(O)c1nc(CF)c(C(=O)N2CCc3[nH]cnc3[C@@H]2c2nc3cc(F)ccc3o2)o1 [Example 212, (R)-(4-(5-fluorobenzo[d]oxazol-2-yl)-6,7-dihydro-1H-imidazo[4,5-c]pyridin-5(4H)-yl)(4-(fluoromethyl)-2-(2-hydroxypropan-2-yl)oxazol-5-yl)methanone]
500 to 1000	O=C(c1oc(C2(O)CC2)nc1C(F)F)N1CCc2[nH]cnc2[C@@H]1c1nc2cccc(F)c2o1 [Example 213, (R)-(4-(difluoromethyl)-2-(1-hydroxycyclopropyl)oxazol-5-yl)(4-(7-fluorobenzo[d]oxazol-2-yl)-6,7-dihydro-1H-imidazo[4,5-c]pyridin-5(4H)-yl)methanone]
≤ 500	O=C(c1oc(C2(O)CC2)nc1C(F)F)N1CCc2[nH]cnc2[C@H]1c1nc2cccc(F)c2o1 [Example 214, (S)-(4-(difluoromethyl)-2-(1-hydroxycyclopropyl)oxazol-5-yl)(4-(7-fluorobenzo[d]oxazol-2-yl)-6,7-dihydro-1H-imidazo[4,5-c]pyridin-5(4H)-yl)methanone]
500 to 1000	O=C(c1oc(C2(O)CC2)nc1C(F)F)N1CCc2[nH]cnc2[C@H]1c1nc2c(F)cccc2o1 [Example 215, (S)-(4-(difluoromethyl)-2-(1-hydroxycyclopropyl)oxazol-5-yl)(4-(4-fluorobenzo[d]oxazol-2-yl)-6,7-dihydro-1H-imidazo[4,5-c]pyridin-5(4H)-yl)methanone]
1000 to 5000	O=C(c1oc(C2(O)CC2)nc1C(F)F)N1CCc2[nH]cnc2[C@@H]1c1nc2c(F)cccc2o1 [Example 216, (R)-(4-(difluoromethyl)-2-(1-hydroxycyclopropyl)oxazol-5-yl)(4-(4-fluorobenzo[d]oxazol-2-yl)-6,7-dihydro-1H-imidazo[4,5-c]pyridin-5(4H)-yl)methanone]

Structure (SMILES)	AC50 [nM]
CNc1cn2ncc(C(=O)N3CCc4[nH]cnc4[C@H]3c3nc4cc(F)ccc4o3)c2cc1Cl [Example 205, (S)-(5-chloro-6-(methylamino)pyrazolo[1,5-a]pyridin-3-yl)(4-(5-fluorobenzo[d]oxazol-2-yl)-6,7-dihydro-1H-imidazo[4,5-c]pyridin-5(4H)-yl)methanone]	≤ 500
CNc1cn2ncc(C(=O)N3CCc4[nH]cnc4[C@@H]3c3nc4cc(F)ccc4o3)c2cc1Cl [Example 206, (R)-(5-chloro-6-(methylamino)pyrazolo[1,5-a]pyridin-3-yl)(4-(5-fluorobenzo[d]oxazol-2-yl)-6,7-dihydro-1H-imidazo[4,5-c]pyridin-5(4H)-yl)methanone]	1000 to 5000
